From patent US20260028340A1 (Supernus Pharmaceuticals, Inc., priority 2023, published 2026)

Tests used:
[1] = Pharmacokinetic data in CD-1 mice after oral administration; type: in vivo; settings: 10 mg/kg molar equivalent to Cmpd. A (nominal), serum; for AUC(0-t) / Cmax / Tmax / AUC(0-inf) / half-life: mouse, analyte: dosed derivative (DV)
Experimental: Pharmacokinetic (PK) data was generated using twelve CD-1 mice treated with oral administration of the compound with a dose volume of 10 mg/kg (a molar equivalent to 5-(4-chlorophenyl)-2,3-dihydroimidazo[1,2-b]isoindol-5-ol (“Compound A,” “Cmpd. A,” or “A”)), and a nominal strength of 1 mg/mL. The serum was analyzed in triplicate with 200 mM K2EDTA anticoagulant.

[2] = as above; type: in vivo; settings: mouse, serum, Table 7: CD-1 mice, nominal dose 5.10 mg/kg Cmpd. A or 6.57-8.40 mg/kg DV salt, analyte: dosed derivative (DV)

Row | SMILES | PK parameters / level of analyte A (Cmpd. A) after dosing the derivative [1] | AUC(0-t) [1] | Cmax [1] | Tmax [1] | AUC(0-inf) [1] | half-life [1] | AUC(0-inf) [2] | AUC(0-t) [2] | Cmax [2] | Tmax [2] | half-life [2]
1 | CC(C)C(NC(=O)OC(C)(C)C)C(=O)N1CCN=C1c1ccccc1C(=O)c1ccc(Cl)cc1 (stereo not drawn) | NC (BLQ at all the time points) | 56.5 ng·h/mL | 61.2 ng/mL | 15 min | – | – | – | – | – | – | –
2 | Clc1ccc(C2(OCc3ccccc3)c3ccccc3C3=NCCN32)cc1 (stereo not drawn) [Compound I-1, 5-(benzyloxy)-5-(4-chlorophenyl)-2,5-dihydro-3H-imidazo[2,1-a]isoindole] | – | 137 ng·h/mL | 68.2 ng/mL | 15 min | 141 ng·h/mL | 96 min | – | – | – | – | –
3 | COc1ccc(COC2(c3ccc(Cl)cc3)c3ccccc3C3=NCCN32)cc1 (stereo not drawn) [Compound I-2, 5-(4-chlorophenyl)-5-((4-methoxybenzyl)oxy)-2,5-dihydro-3H-imidazo[2,1-a]isoindole] | – | 260 ng·h/mL | 234 ng/mL | 15 min | 268 ng·h/mL | 108 min | – | – | – | – | –
4 | C=CCOC1(c2ccc(Cl)cc2)c2ccccc2C2=NCCN21 (stereo not drawn) [Compound I-3, 5-(allyloxy)-5-(4-chlorophenyl)-2,5-dihydro-3H-imidazo[2,1-a]isoindole] | – | 73.7 ng·h/mL | 52.9 ng/mL | 30 min | 88.9 ng·h/mL | 102 min | – | – | – | – | –
5 | COCCOC1(c2ccc(Cl)cc2)c2ccccc2C2=NCCN21 (stereo not drawn) [Compound I-4, 5-(4-chlorophenyl)-5-(2-methoxyethoxy)-2,5-dihydro-3H-imidazo[2,1-a]isoindole] | – | 568 ng·h/mL | 475 ng/mL | 15 min | 586 ng·h/mL | 108 min | – | – | – | – | –
6 | COC1(c2ccc(Cl)cc2)c2ccccc2C2=NCCN21 (stereo not drawn) [Compound I-6, 5-(4-chlorophenyl)-5-methoxy-2,5-dihydro-3H-imidazo[2,1-a]isoindole] | – | 64.7 ng·h/mL | 72 ng/mL | 30 min | 66.6 ng·h/mL | 51 min | – | – | – | – | –
7 | Clc1ccc(C2(OCc3ccc4c(c3)OCO4)c3ccccc3C3=NCCN32)cc1 (stereo not drawn) [Compound I-7, 5-(benzo[d][1.3]dioxol-5-ylmethoxy)-5-(4-chlorophenyl)-2,5-dihydro-3H-imidazo[2,1-a]isoindole] | – | 307 ng·h/mL | 211 ng/mL | 15 min | 358 ng·h/mL | 85.2 min | – | – | – | – | –
8 | CCOC1(c2ccc(Cl)cc2)c2ccccc2C2=NCCN21 (stereo not drawn) [Compound I-8, 5-(4-chlorophenyl)-5-ethoxy-2,5-dihydro-3H-imidazo[2,1-a]isoindole] | – | 48.5 ng·h/mL | 32 ng/mL | 30 min | 72.4 ng·h/mL | 127 min | – | – | – | – | –
9 | CC(C)=CCOC1(c2ccc(Cl)cc2)c2ccccc2C2=NCCN21 (stereo not drawn) [Compound I-9, 5-(4-chlorophenyl)-5-((3-methylbut-2-en-1-yl)oxy)-2,5-dihydro-3H-imidazo[2,1-a]isoindole] | – | 55.1 ng·h/mL | 124 ng/mL | 15 min | 59.8 ng·h/mL | 85.2 min | – | – | – | – | –
10 | CC(C)COC1(c2ccc(Cl)cc2)c2ccccc2C2=NCCN21 (stereo not drawn) [Compound I-10, 5-(4-chlorophenyl)-5-isobutoxy-2,5-dihydro-3H-imidazo[2,1-a]isoindole] | – | 94.6 ng·h/mL | 82.5 ng/mL | 15 min | 112 ng·h/mL | 97.8 min | – | – | – | – | –
11 | CC(C)=CCC/C(C)=C/COC1(c2ccc(Cl)cc2)c2ccccc2C2=NCCN21 (stereo not drawn) [Compound I-11, (E)-5-(4-chlorophenyl)-5-((3,7-dimethylocta-2,6-dien-1-yl)oxy)-2,5-dihydro-3H-imidazo[2,1-a]isoindole] | – | 39.7 ng·h/mL | 27.7 ng/mL | 15 min | 44 ng·h/mL | 69.6 min | – | – | – | – | –
12 | COCCOCCOCCOC1(c2ccc(Cl)cc2)c2ccccc2C2=NCCN21 (stereo not drawn) [Compound I-12, 5-(4-chlorophenyl)-5-(2-(2-(2-methoxyethoxy)ethoxy)ethoxy)-2,5-dihydro-3H-imidazo[2,1-a]isoindole] | – | 68.9 ng·h/mL | 67.6 ng/mL | 30 min | – | – | – | – | – | – | –
13 | CC(C)=CCC/C(C)=C/CC/C(C)=C/COC1(c2ccc(Cl)cc2)c2ccccc2C2=NCCN21 (stereo not drawn) [Compound I-13, 5-(4-chlorophenyl)-5-(((2E,6E)-3,7,11-trimethyldodeca-2,6,10-trien-1-yl)oxy)-2,5-dihydro-3H-imidazo[2,1-a]isoindole] | – | 337 ng·h/mL | 201 ng/mL | 30 min | – | – | – | – | – | – | –
14 | FC(F)(F)c1ccc(COC2(c3ccc(Cl)cc3)c3ccccc3C3=NCCN32)cc1 (stereo not drawn) [Compound I-14, 5-(4-chlorophenyl)-5-((4-(trifluoromethyl)benzyl)oxy)-2,5-dihydro-3H-imidazo[2,1-a]isoindole] | – | – | – | – | – | – | 215 ng·h/mL | 183 ng·h/mL | 56.1 ng/mL | 30 min | 163 min
15 | COc1ccc(COC2(c3ccc(Cl)cc3)c3ccccc3C3=NCCN32)cc1OC (stereo not drawn) [Compound I-15, 5-(4-chlorophenyl)-5-((3,4-dimethoxybenzyl)oxy)-2,5-dihydro-3H-imidazo[2,1-a]isoindole] | – | – | – | – | – | – | 16 ng·h/mL | 12.7 ng·h/mL | 17.8 ng/mL | 20 min | 29.8 min
16 | Clc1ccc(COC2(c3ccc(Cl)cc3)c3ccccc3C3=NCCN32)cc1 (stereo not drawn) [Compound I-16, 5-((4-chlorobenzyl)oxy)-5-(4-chlorophenyl)-2,5-dihydro-3H-imidazo[2,1-a]isoindole] | – | – | – | – | – | – | 224 ng·h/mL | 174 ng·h/mL | 53.3 ng/mL | 35 min | 194 min
17 | CC(C)/C=C/COC1(c2ccc(Cl)cc2)c2ccccc2C2=NCCN21 (stereo not drawn) [Compound I-17, (E)-5-(4-chlorophenyl)-5-((4-methylpent-2-en-1-yl)oxy)-2,5-dihydro-3H-imidazo[2,1-a]isoindole] | – | – | – | – | – | – | 33.2 ng·h/mL | 27.6 ng·h/mL | 25.7 ng/mL | 15 min | 78 min
18 | FC(F)(F)c1ccc(/C=C/COC2(c3ccc(Cl)cc3)c3ccccc3C3=NCCN32)cc1 (stereo not drawn) [Compound I-18, (E)-5-(4-chlorophenyl)-5-((3-(4-(trifluoromethyl)phenyl)allyl)oxy)-2,5-dihydro-3H-imidazo[2,1-a]isoindole] | – | – | – | – | – | – | 792 ng·h/mL | 677 ng·h/mL | 187 ng/mL | 30 min | 237 min
19 | Clc1ccc(C2(OCC3OCCO3)c3ccccc3C3=NCCN32)cc1 (stereo not drawn) [Compound I-19, 5-((1,3-dioxolan-2-yl)methoxy)-5-(4-chlorophenyl)-2,5-dihydro-3H-imidazo[2,1-a]isoindole] | – | – | – | – | – | – | – | 2.04 ng·h/mL | 4.27 ng/mL | 20 min | –
20 | O=C(c1ccc(Cl)cc1)c1ccccc1C1=NCCN1C(=O)c1ccccc1 [II-1, (2-(1-benzoyl-4,5-dihydro-1H-imidazol-2-yl)phenyl) (4-chlorophenyl) methanone] | – | 19.8 ng·h/mL | 43 ng/mL | 15 min | 21.8 ng·h/mL | 100 min | – | – | – | – | –
21 | COc1ccc(C(=O)N2CCN=C2c2ccccc2C(=O)c2ccc(Cl)cc2)cc1 [II-2, (2-(2-(4-chlorobenzoyl)phenyl)-4,5-dihydro-1H-imidazol-1-yl) (4-methoxyphenyl) methanone] | – | 611 ng·h/mL | 170 ng/mL | 30 min | 624 ng·h/mL | 81.6 min | – | – | – | – | –
22 | Cc1ccc(C(=O)N2CCN=C2c2ccccc2C(=O)c2ccc(Cl)cc2)cc1 [II-3, (2-(2-(4-chlorobenzoyl)phenyl)-4,5-dihydro-1H-imidazol-1-yl) (p-tolyl) methanone] | – | 163 ng·h/mL | 81.6 ng/mL | 15 min | 182 ng·h/mL | 132 min | – | – | – | – | –
23 | O=C(c1ccc(Cl)cc1)c1ccccc1C1=NCCN1C(=O)c1ccc2c(c1)OCO2 [II-4, benzo[d][1.3]dioxol-5-yl(2-(2-(4-chlorobenzoyl)phenyl)-4,5-dihydro-1H-imidazol-1-yl) methanone] | NC (BLQ at all the time points) | 236 ng·h/mL | 50.3 ng/mL | 15 min | 238 ng·h/mL | 72 min | – | – | – | – | –
24 | CN1CCN(C(=O)N2CCN=C2c2ccccc2C(=O)c2ccc(Cl)cc2)CC1 [II-6, (2-(2-(4-chlorobenzoyl)phenyl)-4,5-dihydro-1H-imidazol-1-yl) (4-methylpiperazin-1-yl) methanone] | – | 531 ng·h/mL | 752 ng/mL | 15 min | 548 ng·h/mL | 51 min | – | – | – | – | –
25 | CC(C)(C(=O)N1CCN=C1c1ccccc1C(=O)c1ccc(Cl)cc1)C(=O)N1CCN=C1c1ccccc1C(=O)c1ccc(Cl)cc1 [III-1, 1,3-bis(2-(2-(4-chlorobenzoyl)phenyl)-4,5-dihydro-1H-imidazol-1-yl)-2,2-dimethylpropane-1,3-dione] | NC (BLQ at all the time points) | 366 ng·h/mL | 238 ng/mL | 15 min | 369 ng·h/mL | 72 min | – | – | – | – | –
